Earlier results, collected in EP3697221B1, “AQUEOUS SUSPENSION CONCENTRATES BASED ON 2-[(2,4-DICHLOROPHENYL)-METHYL]-4,4'-DIMETHYL-3-ISOXAZOLIDINONE” (Bayer Aktiengesellschaft, priority 2017, dated 2019).

Conditions: water

Structure (SMILES) | Wasserlöslichkeit
CC1(C)CON(Cc2ccccc2Cl)C1=O [Clomazone, 2-(2-chlorobenzyl)-4,4-dimethyl-1,2-oxazolidin-3-one] | 1000 ppm
CC1(C)CON(Cc2ccc(Cl)cc2Cl)C1=O [DCPMI, 2-[(2,4-Dichlorphenyl)-methyl]-4,4'-dimethyl-3-isoxazolidinone] | 39,5 ppm
